Consider eight compounds from article PMC6268609, “Synthesis and Evaluation of New β-Carboline-3-(4-benzylidene)-4H-oxazol-5-one Derivatives as Antitumor Agents” (Molecules, 2012).

Usually IC50 stands for the midpoint of a concentration-inhibition curve.

Read-outs that look alike come from different tables or passages of the source. Where only a bound is given, the exact number is not on record here.

The test system of assay [1] is ovarian (OVCAR-03). The conditions noted are these: previous work; cited from earlier work.
The test system of assay [2] is prostate (PC-3). Particulars: previous work; cited from earlier work.
Assay [3] relates to colon (HT-29). In words: Cytotoxic assay (sulforhodamine B), colon. Format: cell-based. Particulars: Homo sapiens, 48 h. As for the experimental part:
(§1) The synthesized compounds were evaluated in vitro against six human cancer cell lines consisting of glioma (U251), melanoma (UACC-62), breast (MCF-7), prostate (PC-3), ovarian (OVCAR-03) and colon (HT-29). Cell lines were obtained from National Cancer Institute (Frederick, MD, USA). Normal cell line (VERO, renal, green monkey), from the Rio de Janeiro Cell Bank, was also used. Stock cultures were grown in medium containing 5 mL RPMI 1640 (GIBCO BRL) supplemented with 5% fetal bovine serum (FBS, GIBCO), at 37 °C with 5% CO2. Penicillin:streptomycin (1000 μg/L:1000 U/L, 1 mL/L) was added to the experimental cultures. Cells in 96-well plates (100 μL cells well^−1) were exposed to compounds 8–11 in DMSO (concentrations of 0.25, 2.5, 25, and 250 μg·mL^−1) at 37 °C, 5% of CO2 in air for 48 h. […] Afterwards cells were fixed with 50% trichloroacetic acid and cell proliferation determined by spectrophotometric quantification (540 nm) of cellular protein content by using sulforhodamine B assay and doxorubicin as the positive control. Three measurements were obtained: at time zero (To, at the beginning of incubation) and 48 h post-incubation for compound-free (C) and tested (T) cells. Cell proliferation was determined according to the equation 100 × [(T − T0)/C − T0], for T0 < T ≤ C, and 100 × [(T − T0)/T0], for T ≤ T0 and a concentration-response curve for each cell line was plotted using software ORIGIN 8.0® (OriginLab Corporation). Using the concentration–response curve for each cell line, the IC50 values (concentration that produces a 50% reduction in cellular growth when compared to untreated control cells) and IC100 values (concentration that promotes total growth inhibition) were determined through non-linear regression analysis using software ORIGIN 8.0® (OriginLab Corporation). Compounds with IC50 values < 100 μM were considered actives.

In assay [4] the test system is breast (MCF-7). In words: Cytotoxic assay (sulforhodamine B), breast. Particulars: Homo sapiens, MCF7, 48 h. In kind it is cell-based. The procedure: as §1
The test system of assay [5] is melanoma (UACC-62). The assay can be described thus: Cytotoxic assay (sulforhodamine B), melanoma. Format: cell-based, human. Particulars: for IC50: Homo sapiens, UACC-62, 48 h, sulforhodamine B assay. As for the experimental part: as §1
The test system of assay [6] is Normal cell line (VERO, renal, green monkey). The assay can be described thus: Cytotoxic assay (sulforhodamine B), normal cell line. Format: cell-based. Particulars: Chlorocebus sabaeus, 48 h. The procedure: as §1
Assay [7] has as its system prostate (PC-3). In words: Cytotoxic assay (sulforhodamine B), prostate. In kind it is cell-based, human. Particulars: for IC50: Homo sapiens, 48 h, sulforhodamine B assay. As for the experimental part:
as §1

Assay [8] relates to ovarian (OVCAR-03). The assay can be described thus: Cytotoxic assay (sulforhodamine B), ovarian. Particulars: for IC50: Homo sapiens, 48 h, sulforhodamine B assay. In kind it is cell-based, human. As for the experimental part: as §1
In general terms: Sulforhodamine B stains cellular protein and so reports cell mass.

Assay [9] relates to glioma (U251). In words: Cytotoxic assay (sulforhodamine B), glioma. Particulars: for IC50: Homo sapiens, U-251, 48 h, sulforhodamine B assay. In kind it is cell-based, human. As for the experimental part: as §1

In the case of `CN(C)c1ccc(-c2nc(-c3n[nH]c(=S)[nH]3)cc3c2[nH]c2ccccc23)cc1` [1-(4-N,N-dimethylaminophenyl)-3-(5-thioxo-1,2,4-triazol-3-yl)-β-carboline], the IC50 is 1.09 µM in assay [1] and 1.37 µM in assay [2].

On to `COc1cccc2c1C(=O)c1c(O)c3c(c(O)c1C2=O)C[C@@](O)(C(=O)CO)C[C@@H]3O[C@H]1C[C@H](N)[C@H](O)[C@H](C)O1` [Doxorubicin, reference compound], for which the IC50 in [3] was 0.18 µM; in assay [4], 0.06 µM; in [5], 0.04 µM; in assay [6], 0.5 µM; in assay [7] it was 0.05 µM; in [8] it was 0.42 µM. The midpoint of inhibition in [9], the IC50, lay at 0.03 µM.

Consider `COc1ccc(-c2nc(C3=NC(=Cc4ccccc4)C(=O)O3)cc3c2[nH]c2ccccc23)cc1` [Compound 11, 2-[1-(4-Methoxyphenyl)-9H-β-carbolin-3-yl]-4-benzylidene-4H-oxazol-5-one], for which the IC50 in assay [3] was 67.9 µM; in [4] it was 23.4 µM; in [5] it was 10 µM; in assay [6], 63.2 µM; in assay [7] it was 1.5 µM; in [8] it was 1.07 µM. For the same compound, the IC50 in assay [9] stood at 0.48 µM. Moreover, the “IC100 (concentration that promotes total growth inhibition)” value in assay [5] (melanoma (UACC-62), cytostatic activity) was determined as 112.42 µM; in assay [7] (prostate (PC-3), cytostatic activity), 64.17 µM; in [8] (ovarian (OVCAR-03), cytostatic activity), 56.83 µM; in assay [9] (glioma (U251), cytostatic activity) it was 15.50 µM.

For the compound `COc1ccc(-c2nc(-c3nnc(SC)o3)cc3c2[nH]c2ccccc23)cc1` [1-(4-methoxyphenyl)-3-(2-methylthio-1,3,4-oxadiazol-5-yl) β-carboline], in assay [1], the IC50 is 2.13 µM.

With `COc1ccc(-c2nc(C3=NC(=Cc4cccc([N+](=O)[O-])c4)C(=O)O3)cc3c2[nH]c2ccccc23)cc1` [Compound 10, 2-[1-(4-Methoxyphenyl)-9H-β-carbolin-3-yl]-4-(3-nitrobenzylidene)-4H-oxazol-5-one], the IC50 in [3] is over 100 µM; in [4], 47.6 µM; in assay [5], 15.9 µM; in assay [6] it was over 100 µM; in [7], 5.28 µM; in assay [8], 2.18 µM. In [9], this compound had an IC50 of 0.35 µM.

Turning to `O=C(NN=Cc1ccccc1Cl)c1cc2c([nH]c3ccccc32)c(-c2ccc(O)cc2)n1` [N'-(2-chlorobenzylidene)-1-(4-hydroxyphenyl)-β-carboline-3-carbohydrazide], the IC50 in assay [1] is 1.65 µM; in assay [2], 1.83 µM.

For `CC(=O)Oc1ccc(-c2nc(C3=NC(=Cc4cccc([N+](=O)[O-])c4)C(=O)O3)cc3c2[nH]c2ccccc23)cc1` [Compound 9, 2-[1-(4-Acetoxyphenyl)-9H-β-carbolin-3-yl]-4-(3-nitrobenzylidene)-4H-oxazol-5-one], the IC50 in [3] is over 100 µM; in assay [4], over 100 µM; in assay [5] it was 8.76 µM; in assay [6], over 100 µM; in [7], over 100 µM; in [8], over 100 µM. This compound showed an IC50 in assay [9] of 80.2 µM.

For the compound `O=C1OC(c2cc3c([nH]c4ccccc43)c(-c3ccccc3)n2)=NC1=Cc1cccc([N+](=O)[O-])c1` [Compound 8, 2-(1-Phenyl-9H-β-carbolin-3-yl)-4-(3-nitrobenzylidene)-4H-oxazol-5-one], the IC50 in assay [3] was over 100 µM; in assay [4] it was over 100 µM; in [5], 7.52 µM; in [6] it was over 100 µM; in assay [7], over 100 µM; in assay [8] it was 63.2 µM. This compound displayed an IC50 in assay [9] of 62.4 µM.
